Reference: US20220117911A1, “METHODS AND COMPOSITIONS FOR MODULATING BLOOD-BRAIN BARRIER” (INSERM (institut National de la Santé et de la Recherche …, priority 2019, published 2022)
“And” between values parts separate entries of the source, which are not always exact repeats. Equal entries are not always repeated. Where two headings read alike, the source gives them in different places.

Experiments:
hCMEC/D3 cells [1] = assay: Trypan blue exclusion assay (number of viable cells) in hCMEC/D3 cells; format: cell-based, human
Excerpt: (§1) To study the effects of TRPV2 agonists and antagonists and silencing TRPV2 on cell viability, the 3-(4,5-dimethyl-2-thiazolyl)-2,5-diphenyl-2-H-tetrazolium bromide assay (MTT, Sigma-Aldrich) evaluating cell mitochondrial activity and Trypan blue exclusion assay evaluating living cells were applied. Cells were firstly treated under three conditions mentioned above (Control, negative siRNA, and TRPV2 siRNA) in a 6-well plate. After transfection, cells were re-distributed in a new plate with the same cell number and the same medium in each well. Cell viability were analysed at 0, 24 h, 48 h, 72 h after re-distribution. For MTT assay, cells were re-distributed in 96-well plates at a density of 1×10^4 cells/well, 6 wells per group, one plate four each time. For Trypan blue exclusion assay, cells were re-distributed in 24-well plates at a density of 5×10^4 cells/well. The number of living cells (not stained by Trypan blue) in each well was counted in a TC20™ Automated Cell Counter (Bio-Rad) at each time point, with 3 wells per group.

hCMEC/D3 cells [2] = assay: ATP CellTiter-Glo luminescent cell viability assay in hCMEC/D3 cells; format: cell-based, human
Method: FIG. 4: Pharmacological and genetic inhibition of TRPV2 reverse CBD-induced cell death of hCMEC/D3 cells. […] Cell viability was measured by ATP CellTiter-Glo luminescent cell viability assay. […] Cell viability was measured by ATP CellTiter-Glo luminescent cell viability assay. […] (D) Effect of silencing TRPV2 in CBD-induced cell cytotoxicity. […] Data are expressed as mean±SEM.
To further validate the involvement of TRPV2 in CBD-induced cell death of hCMEC/D3 cells, pharmacological and genetic inhibition strategies were used. The number of viable cells was evaluated by quantitating total ATP in cells treated by CBD. […] This further indicates the role of TRPV2 at least partly in the CBD-induced cell death.

TRPV2 = molecular target: T1, TRPV2 (Homo sapiens, UniProt Q9Y5S1); assay: Intracellular Ca2+ signal measurements (Fluo-4-AM) in hCMEC/D3 cells; format: cell-based; details: for effect on heat-induced [Ca2+]i signals: heat stimulation
T1 construct: endogenous in cells; host or cells: hCMEC/D3 (human cerebral microvessel endothelial cell line)
T1 sequence (Q9Y5S1 1-764): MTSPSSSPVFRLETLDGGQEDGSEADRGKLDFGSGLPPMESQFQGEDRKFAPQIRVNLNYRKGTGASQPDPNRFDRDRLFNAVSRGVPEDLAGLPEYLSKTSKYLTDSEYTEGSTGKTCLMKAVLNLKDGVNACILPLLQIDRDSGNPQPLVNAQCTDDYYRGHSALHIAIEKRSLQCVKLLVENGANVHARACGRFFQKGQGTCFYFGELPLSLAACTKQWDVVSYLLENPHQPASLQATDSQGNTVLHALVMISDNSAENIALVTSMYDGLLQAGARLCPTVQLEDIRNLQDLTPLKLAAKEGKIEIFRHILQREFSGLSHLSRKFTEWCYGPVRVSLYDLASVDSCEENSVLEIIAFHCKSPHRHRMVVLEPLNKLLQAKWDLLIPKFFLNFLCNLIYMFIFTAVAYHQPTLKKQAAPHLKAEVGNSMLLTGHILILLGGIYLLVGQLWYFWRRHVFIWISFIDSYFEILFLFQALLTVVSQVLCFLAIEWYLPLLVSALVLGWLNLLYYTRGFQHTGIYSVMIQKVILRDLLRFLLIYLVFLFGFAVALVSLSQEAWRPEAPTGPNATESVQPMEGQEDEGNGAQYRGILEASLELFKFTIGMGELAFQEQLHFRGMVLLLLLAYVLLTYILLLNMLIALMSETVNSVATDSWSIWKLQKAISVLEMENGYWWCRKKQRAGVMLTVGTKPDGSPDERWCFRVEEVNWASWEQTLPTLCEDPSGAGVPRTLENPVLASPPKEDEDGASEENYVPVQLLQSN
Method: Fluorescence measurement of intracellular Ca2+ ([Ca2+]i) concentration was performed in accordance with our optimized protocol as below: hCMEC/D3 cells grown at 100% confluence in 24-well plates were loaded with 2 μM of fluorescent marker, Fluo-4-AM (λex=496 nm, λem=516 nm, F14201, Thermo Fisher Scientific) for 45 min at 37° C. in a loading Hank's buffer (500 μL/well). The cells were washed and replaced with 500 μL/well buffer. After additional 10 min of incubation at 37° C., the 24-well plates were placed into a Victor™ X2 fluorescent heated microplate reader (PerkinElmer, France). When applying antagonists, cells were pre-treated with the compound for 5 min before to start fluorescent signals recording. Data are expressed as F1/F0, where F0 is the average fluorescence of the control group (no agent or no heat stimulation application) and F1 is the actual fluorescence at the corresponding time for the treated group. To visualize clearly and directly the effect of the chemical agonist and antagonist on [Ca2+]i change, hCMEC/D3 cells were seeded in a 8-well ibidi (1.5 polymer coverslip, CliniSciences). Then, the μ-Slide containing 250 μL/well normal buffer was placed on the platform of a ZEISS 515 […] confocal microscope (Carl Zeiss), and fluo-4-AM loaded cells were photographed using a time-lapse mode every 60 s during 20 min in a humidified 5% CO2 atmosphere at 37° C. Images of hCMEC/D3 were analysed in Fiji app running Image J software.
(§2) Data are expressed as mean value±SEM. Statistical analysis was performed using ANOVA with Dunnett a posteriori test to compare different groups with the control. P value<0.05 was considered statistically significant. […] To calculate IC50 of antagonists (RR and TNL), the concentration-response data were fitted to a logistic function as follows: Y=100/(1+10(log IC50−X)×HillSlope) where Y is the normalized response from 100% down to 0%, X is the decimal log of concentration, HillSlope is the slope. Data fitting was all performed in GraphPad Prism 5.01 software.

hCMEC/D3 cells [3] = assay: Wound healing migration assay in hCMEC/D3 cells; format: cell-based, human; details: for effect on cell migration vs control group: 3 μM CBD
Method: Cell migration was determined with wound healing assay in hCMEC/D3 as reported previously20. Briefly, a standard wound was created by scratching the cell monolayer of hCMEC/D3 cells with a sterile 200 μL plastic pipette tip and line makers were made at the bottom of plates to indicate the wound edges. After removing cell fragments, the cells were incubated at 37° C. with medium containing 5% FBS. In order to minimize avoid the effect of cell proliferation on would healing assay, the medium was absent of bFGF. The areas of the wound and wound repair activity were photographed by phase contrast microscope (Olympus, Japan) at 0, 4, 8, 24 h. […] After 3 days, cells were prepared for wound healing assay with 100% confluence. […] To study the effects of silencing TRPV2 channel on cell proliferation, the cells were firstly treated under three conditions mentioned above (Control, negative siRNA, and TRPV2 siRNA) in a 6-wells plate. After transfection, the cells were re-distributed in 12-well plate at a density of 5×10^5 cells/well in 750 μL complete culture medium. When cells were 100% confluent, the wound healing assay was started following the above-mentioned protocol. Assays were performed 3 times in triplicate.

[4] = MTT cell viability assay in hCMEC/D3 cells; format: cell-based, human; details: human, read-out: decrease of cell viability (MTT)
Excerpt: as §1
(§3) After 24 h treatment, the wells were replaced with 100 μL/well fresh complete medium, and 20 μL MTT solution (diluted in PBS buffer, 5 mg·mL-1) was added to each well. And, the plates were kept at 37° C. for an additional 4 h. Then the medium was removed and replaced with 100 μL DMSO per well, in order to dissolve the formazan. The plates were read using a Victor™ X2 microplate reader at 490 nm (PerkinElmer).
as §2

hCMEC/D3 cells [5] = assay: MTT cell viability assay in hCMEC/D3 cells; format: cell-based, human; details: for CBD-induced proliferation level (MTT, CTL=100%): 3 μM CBD
Excerpt: as §1, §3, §2

hCMEC/D3 cells [6] = assay: Tubulogenesis, 3D culture of hCMEC/D3 cells in Matrigel; format: cell-based, human; details: for increase of closing tube number vs control group: 3 μM CBD
Method: 3D culture of hCMEC/D3 human BBB endothelial cells was performed using Matrigel (Corning). Matrigel, stored at 4° C. at least 24 h before the assay, was added to a 48-well plate (150 μL/well), and then the plate was incubated at 37° C. for 1 h to allow Matrigel polymerization. […] 500 μL/well fresh complete medium containing cells were distributed in the 48-well plate. After 2 h, 7 h and 24 h incubation, images of the wells in the plate were taken. […] Assays were performed 3 times in triplicate and tubule-like structure lumen count was realized with Image J software.

hPBMEC monolayers = assay: TEER of in vitro human BBB model using hPBMECs on Transwell; format: cell-based; details: 50 μM TNL co-treatment with 1 μM CBD
Excerpt: Human Primary Brain Microvascular Endothelial Cells (hPBMECs). Brain capillary endothelial cells were isolated from surgical resections of patients with brain tumors. […] In brief, brain capillaries were isolated using soft digestion of patient brain peritumoral tissues and then seeded. Brain primary microvascular endothelial cells were shortly amplified and seeded on Transwell® (Corning) with microporous membranes (pore size: 0.4 μm) in monoculture or in co-culture with the same patient's fresh primary human cultured astrocytes. Cells were cultured in EBM-2 medium (Lonza, Basel, Switzerland) supplemented with 20% serum and growth factors (Sigma).
After 24 h co-culture, CBD (1 μM) or the same proportion of vehicle was added into the cell inserts. To study the involvement of TRPV2 in CBD-induced effect, cells were pre-treated with 50 μM TNL for 5 min before adding CBD. The TEER values expressed in Ω·cm2 were recorded after 1, 2, 4, 10, 24, 31, 48, 72, 96, 120 h of CBD treatment.

SMILES: C=C(C)[C@@H]1CCC(C)=C[C@H]1c1c(O)cc(CCCCC)cc1O [CBD, cannabidiol]
- increase of the number of viable cells (hCMEC/D3 cells [1]; 3 μM CBD): 1.2 fold
- effect on cell viability (ATP) (hCMEC/D3 cells [2]; 30 μM CBD, 2 h): significantly decreased
- increase of [Ca2+]i area under the curve (AUC) vs control (TRPV2; 30 μM CBD, 20 min incubation): 1.5 fold
- lowest concentration with significant increase of [Ca2+]i AUC (TRPV2; 20 min incubation): 0.3 µM
- effect on cell migration vs control group (hCMEC/D3 cells [3]; 4 h post wound): significant pro-migration effect
- effect on cell migration vs control group (hCMEC/D3 cells [3]; 8 h post wound, p<0.05): significant increase
- cytotoxicity at 24 h, 15 μM ([4]; hCMEC/D3 cells silenced for TRPV2 (TRPV2 siRNA)): 6%
- cytotoxicity at 24 h, 15 μM ([4]; hCMEC/D3 cells treated with negative (NEG) siRNA): 27%
- cytotoxicity at 24 h, 15 μM ([4]; hCMEC/D3 cells): 37%
- cytotoxicity at 48 h, 15 μM ([4]; hCMEC/D3 cells): 77%
- cytotoxicity at 72 h, 15 μM ([4]; hCMEC/D3 cells): 78%
- CBD-induced proliferation level (MTT, CTL=100%) (hCMEC/D3 cells [5]; 24 h, siNEG cells): 125.9±4.0%
- CBD-induced proliferation level (MTT, CTL=100%) (hCMEC/D3 cells [5]; 24 h, siTRPV2 cells): 113.0±2.1%
- increase of MTT absorbance vs control group (hCMEC/D3 cells [5]; 10 μM CBD, 24 h): 22.0±1.2%
- lowest concentration with significantly increased MTT absorbance (hCMEC/D3 cells [5]; 24 h): 0.3 µM
- EC50 (hCMEC/D3 cells [5]; Homo sapiens, hCMEC/D3, 24 h, read-out: EC50 of CBD effect on MTT absorbance (cell viability)): ~0.3 µM
- increase of closing tube number vs control group (hCMEC/D3 cells [6]; 7 h): 41% and 42.0±14.0%
- increase of closing tube number vs control group (hCMEC/D3 cells [6]; 24 h): 73% and 73.0±15.3%

SMILES: CC(C)C[C@H](NC(=O)c1cc2ccccc2s1)C(=O)N1CCN(C(=O)[C@H](CO)NS(=O)(=O)c2ccc(Cl)cc2Cl)CC1 [GSK1016790A]
- effect on cell viability (MTT) (hCMEC/D3 cells [5]; GSK1016790A 1 μM, 24, 48 or 72 h): did not alter cell viability

SMILES: N.N.N.N.N.N.N.N.N.N.N.N.N.N.[Cl-].[Cl-].[Cl-].[Cl-].[Cl-].[Cl-].[O-2].[O-2].[Ru+3].[Ru+3].[Ru+4] [RR, ruthenium red]
- effect on CBD-induced elevation of [Ca2+]i (TRPV2; 10 μM RR pretreatment, 15 μM CBD): fully abolished
- IC50 (TRPV2; 15 μM CBD, antagonist pre-treatment 5 min, read-out: IC50 of inhibition of CBD-mediated elevation of [Ca2+]i): 7.7 ± 1.7 µM
- effect on heat-induced [Ca2+]i signals (TRPV2; RR): significantly decreased

SMILES: COc1ccc(/C=C/C(=O)Nc2ccccc2C(=O)O)cc1OC [TNL, tranilast]
- effect on CBD-induced increase of viable cells (hCMEC/D3 cells [1]; 50 μM TNL with 3 μM CBD): totally inhibited
- effect on CBD-induced decrease in cell viability (ATP) (hCMEC/D3 cells [2]; 50 μM TNL, 15 μM CBD, 48 h): partly reversed
- effect on CBD-induced decrease in cell viability (ATP) (hCMEC/D3 cells [2]; 100 μM TNL, 30 μM CBD, 2 h): reversed
- effect on CBD-mediated lasting elevation of [Ca2+]i (TRPV2; 100 μM TNL, 15 μM CBD): fully abolished
- effect on heat-induced [Ca2+]i signals (TRPV2; TNL 50 or 100 μM): significantly decreased
- effect on pro-migration effect of CBD (hCMEC/D3 cells [3]; 50 μM TNL co-treatment with 3 μM CBD, 8 h): totally inhibited
- effect on CBD-induced tube formation (hCMEC/D3 cells [6]; 50 μM TNL co-treatment with 3 μM CBD, 7 h): inhibited
- effect on CBD-induced tube formation (hCMEC/D3 cells [6]; 50 μM TNL with 3 μM CBD, 24 h): totally reversed
- effect on CBD-induced TEER increase (hPBMEC monolayers): totally inhibited
